The values below come from patent US8658638B2, “Mineralocorticoid receptor antagonist and methods of use” (priority 2009, dated 2014).

Where only a bound is given, the exact number is not on record here.

Experiment [1] has as its target T1, human mineralocorticoid receptor (MR) (Homo sapiens, UniProt P08235).
T1 construct: expressed in transfected cells; host or cells: HEK293
T1 sequence (P08235 1-984): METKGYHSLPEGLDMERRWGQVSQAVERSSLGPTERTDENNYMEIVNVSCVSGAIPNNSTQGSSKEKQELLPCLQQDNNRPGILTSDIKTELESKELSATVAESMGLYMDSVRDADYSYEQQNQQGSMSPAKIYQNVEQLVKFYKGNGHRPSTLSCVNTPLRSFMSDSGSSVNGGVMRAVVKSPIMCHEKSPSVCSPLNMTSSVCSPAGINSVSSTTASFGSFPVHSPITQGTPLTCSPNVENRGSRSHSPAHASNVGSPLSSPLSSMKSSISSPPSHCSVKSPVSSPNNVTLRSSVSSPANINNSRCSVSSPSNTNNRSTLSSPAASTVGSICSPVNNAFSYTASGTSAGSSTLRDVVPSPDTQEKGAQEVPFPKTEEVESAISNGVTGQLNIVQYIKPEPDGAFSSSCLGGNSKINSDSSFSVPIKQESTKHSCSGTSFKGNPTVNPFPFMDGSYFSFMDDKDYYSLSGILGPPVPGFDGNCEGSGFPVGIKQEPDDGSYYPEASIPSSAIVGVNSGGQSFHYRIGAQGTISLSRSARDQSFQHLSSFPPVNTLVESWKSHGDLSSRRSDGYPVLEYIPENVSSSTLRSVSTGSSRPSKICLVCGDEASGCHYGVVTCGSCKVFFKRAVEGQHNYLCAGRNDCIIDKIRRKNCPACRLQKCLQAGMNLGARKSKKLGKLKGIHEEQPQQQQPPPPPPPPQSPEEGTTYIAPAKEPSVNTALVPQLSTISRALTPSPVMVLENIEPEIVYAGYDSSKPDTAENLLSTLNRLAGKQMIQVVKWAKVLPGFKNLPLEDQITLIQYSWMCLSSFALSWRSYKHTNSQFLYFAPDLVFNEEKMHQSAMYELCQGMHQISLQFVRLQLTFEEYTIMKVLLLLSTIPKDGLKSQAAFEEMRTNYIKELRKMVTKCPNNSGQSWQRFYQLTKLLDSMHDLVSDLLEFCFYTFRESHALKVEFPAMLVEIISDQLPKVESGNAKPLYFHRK
Briefly: Nuclear hormone receptor panel screen (luciferase reporter, HEK293), MR. The experiment is classed as cell-based. An excerpt: Aldosterone exerts it physiological effects through interaction with the mineralocorticoid receptor. Following cytoplasmic binding of aldosterone to MR, the ligand receptor complex translocates to the cell nucleus where it binds to hormone response elements on DNA to initiate expression of target genes. […] The solvents, reagents, and ligands employed in the functional assay are readily available from commercial sources, or can be prepared by one of ordinary skill in the art.
Human embryonic kidney HEK293 cells are transfected with steroid hormone receptor and reporter gene plasmids using a suitable transfection reagent such as Fugene™. […] After 24 hours incubation with test compounds, cells are lysed and luciferase activity is determined using standard techniques.
Data are fitted to a four parameter-fit logistic curve to determine EC50 values. […] IC50 values are determined similarly using antagonist mode assay data. In the antagonist mode, percent inhibitions are determined by comparing test compound activity in the presence of low concentration of agonist (0.08 nM aldosterone for MR, 0.25 nM dexamethasone for GR, 0.66 nM of methyltrienolone for AR, and 0.08 nM of promegestone for PR) to the response produced by the same low concentration of agonist in the absence of test compound.

The target of another experiment is T2, human MR (Homo sapiens, UniProt P08235).
T2 construct: expressed in transfected cells; host or cells: HEK293
T2 sequence (P08235 1-984): T1 sequence (P08235 1-984)
Briefly: hMR competitive antagonist assay (Schild analysis). It counts as cell-based. To be noted: Schild analysis versus aldosterone, HEK293 transfected with human MR.

Text for human MR: Human embryonic kidney HEK293 cells are transfected with human MR using the same transfection reagents, plasmids, promoters, reporter constructs, buffers, and procedures as described above for the Nuclear Hormone Receptor Panel Screen.

With `O=c1[nH]c2cc(/C=C3\c4ccccc4COc4cc(F)ccc43)ccc2n1[C@@H]1C[C@@H]2COCCN2C1` [Compound (I), 5-((E)-(3-fluorodibenzo[b,e]oxepin-11(6H)-ylidene)methyl)-1-((7R,8aR)-hexahydro-1H-pyrrolo[2,1-c][1,4]oxazin-7-yl)-1H-benzo[d]imidazol-2(3H)-one], in experiment [1] (agonist mode), the EC50 was greater than 10000 nM. This compound yielded an IC50 in experiment [1] (antagonist mode, 0.08 nM aldosterone) of roughly 21 nM. In addition, the antagonist dissociation constant (Kb) at human MR is roughly 5.1 nM.

As a reminder, the EC50 is the concentration that produces a half-maximal response. A low value points to higher potency in that assay. A word on the IC50: it is the point on the concentration scale where inhibition reaches its midpoint. Usually Kb stands for the equilibrium dissociation constant of an antagonist, usually derived from a functional assay. Higher therefore signals lower antagonist affinity.
